A word on the melting point: it is the temperature, or range, at which the solid turns liquid. The term IC50 denotes the concentration that inhibits the measured activity by half.

Series [1] deals with human MiaPaCa-2 pancreatic cancer cells. The experiment in a line: In vitro cellular proliferation assay (SRB). To be noted: MIA PaCa-2, 72 h, 3 days incubation, starting concentration 100 μM, read-out: IC50 (growth inhibition, MiaPaCa-2). It is filed as cell-based.
Description: In vitro cell proliferation assays were performed using a 96-well plate based SRB (Sulforhodamine-B) assay. Briefly, human MiaPaCa-2 pancreatic cancer cells were plated in 100 μl medium on day 0 in 96-well microtiter plates (Falcon #3072). On day 1, 10 μl of serial dilutions of each compound (Nine 1:2 dilutions with a starting concentration of 100 μM) were added in triplicates to the plates. As a vehicle control, serial dilutions of DMSO with a starting concentration of 0.5% were also included. After incubation for 3 days at 37° C. in a humidified incubator, cells were fixed in situ with 50 μL of cold trichloroacetic acid (TCA, final concentration at 10% w/v) for 60 minutes. Cells were then washed 5 times with H2O and air-dried. Next, cells were stained with 20 μL of 0.2% SRB in 1% acetic acid and incubated at room temperature for 30 minutes and unbound SRB was removed by washing 5 times with 1% acetic acid and air-dried. Finally, bound SRB stain was solubilized in 50 μL of 50 μM Tris buffer before taking an optical density measurement at 570 nm using a BioTek Synergy™ HT Multiple Detection microplate reader. The growth inhibition data were expressed as the percentage of cell survival calculated from the background corrected absorbance. The surviving fraction of cells was determined by dividing the mean absorbance values of the test agent-treated samples by the mean absorbance values of untreated control.
In another series the target is T1, Recombinant human COX-2 (Homo sapiens, UniProt P35354).
T1 sequence (P35354 18-604): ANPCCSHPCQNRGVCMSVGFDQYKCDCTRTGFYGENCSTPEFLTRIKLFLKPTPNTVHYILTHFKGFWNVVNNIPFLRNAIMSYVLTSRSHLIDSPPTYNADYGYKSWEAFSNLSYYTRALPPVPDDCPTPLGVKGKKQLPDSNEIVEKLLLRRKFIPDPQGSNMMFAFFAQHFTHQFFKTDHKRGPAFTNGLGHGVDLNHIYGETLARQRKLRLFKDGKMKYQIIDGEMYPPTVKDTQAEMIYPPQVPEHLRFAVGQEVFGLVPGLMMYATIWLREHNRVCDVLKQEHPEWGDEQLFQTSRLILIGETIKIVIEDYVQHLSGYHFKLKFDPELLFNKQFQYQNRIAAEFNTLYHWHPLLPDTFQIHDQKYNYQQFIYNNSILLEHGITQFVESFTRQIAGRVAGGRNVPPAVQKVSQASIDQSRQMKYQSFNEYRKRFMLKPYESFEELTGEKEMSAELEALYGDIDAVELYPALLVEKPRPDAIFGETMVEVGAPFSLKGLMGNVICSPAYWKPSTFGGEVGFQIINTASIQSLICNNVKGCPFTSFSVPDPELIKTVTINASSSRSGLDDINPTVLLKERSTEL
The experiment in a line: Recombinant human COX-2 enzyme assay (PGE2 by EIA). It is filed as biochemical. The settings on record: preincubation 5 min at 22° C., 2 μM arachidonic acid. The method, then:
(§1) Recombinant human enzymes were reconstituted in buffer (100 mM Tris, pH 7.8 at 37° C.) containing 0.5 mM phenol (964 μl total volume). The enzyme preparations were preincubated with vehicle (DMSO) or compounds of the invention in DMSO (1% DMSO in final assay) for 10 min at 25° C. for COX-1 and 5 min at 22° C. for COX-2. Excess hematin was added 1 min prior to initiation of reaction (1.25 μM final hematin) with 4 μM (COX-1) and 2 μM (COX-2) arachidonic acid (sodium salt). The final assay volume was 1.0 ml (100 mM Tris (pH 7.8), 0.5 mM phenol, 1.25 μM hematin and arachidonic acid at 37° C.). The reaction was incubated for 35 s (maximum level of COX-2 accumulation as determined from time course studies), and terminated by addition of 50-60 μl of SnCl2 (1 mg/ml) in 0.1 N HCl. PGE2 production in the presence or absence of the drug was determined by Enzyme Immunoassay (EIA) analysis as described.
(§2) EIA Determination of Prostaglandins
(§3) EIA reagents for prostaglandin determination were purchased from commercial sources. PGE2 levels in enzyme assays were measured against standards prepared in the same milieu using standard methods. The EIA was conducted in 96-well micotiter plates and optical density measured using a microplate reader by standard methods.

A further series deals with Recombinant human COX-1 (Homo sapiens, UniProt P23219). Kind of series: Recombinant human COX-1 enzyme assay (PGE2 by EIA). It is filed as biochemical. The method, then: as §1, with “Excess hematin was added 1 min prior to initiation of reaction (1.25 μM final hematin) with 4 μM (COX-1) and 2 μM (COX-2) arachidonic acid (sodium salt). The final assay volume was 1.0 ml (100 mM Tris (pH 7.8), 0.5 mM phenol, 1.25 μM hematin and arachidonic acid at 37° C.).” left out
as §2, §3

Sequence of Recombinant human COX-1 (P23219 24-599): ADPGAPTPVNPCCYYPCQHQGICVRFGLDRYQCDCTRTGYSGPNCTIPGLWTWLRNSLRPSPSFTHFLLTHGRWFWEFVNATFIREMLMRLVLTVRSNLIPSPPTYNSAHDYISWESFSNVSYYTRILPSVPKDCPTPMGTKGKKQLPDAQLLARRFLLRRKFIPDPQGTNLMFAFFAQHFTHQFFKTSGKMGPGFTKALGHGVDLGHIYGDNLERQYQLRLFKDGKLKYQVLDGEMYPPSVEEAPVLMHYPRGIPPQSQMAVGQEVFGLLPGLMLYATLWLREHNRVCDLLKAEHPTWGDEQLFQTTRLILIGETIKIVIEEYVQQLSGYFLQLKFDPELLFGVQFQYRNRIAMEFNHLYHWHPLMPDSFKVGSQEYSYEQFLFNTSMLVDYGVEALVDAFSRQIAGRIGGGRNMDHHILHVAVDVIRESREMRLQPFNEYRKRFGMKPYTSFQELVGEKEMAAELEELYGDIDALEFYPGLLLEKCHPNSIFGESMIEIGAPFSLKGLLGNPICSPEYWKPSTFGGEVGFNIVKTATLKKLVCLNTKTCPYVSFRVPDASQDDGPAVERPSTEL

The compound `COc1ccc2c(c1)c(CC(=O)NCCC[Si](C)(C)C)c(C)n2C(=O)c1ccc(Cl)cc1` [Example 1, 2-(1-(4-chlorobenzoyl)-5-methoxy-2-methyl-1H-indol-3-yl)-N-(3-(trimethylsilyl)propyl)acetamide] had a melting point of 97 to 101 °C. The IC50 in series [1] was determined as 6.6 µM. The IC50 on Recombinant human COX-2 was 0.21 µM. Moreover, the IC50 at Recombinant human COX-1 is > 10 µM.
The like results for `COc1ccc2c(c1)c(CC(=O)NC[Si](C)(C)C)c(C)n2C(=O)c1ccc(Cl)cc1` [Example 2, 2-(1-(4-chlorobenzoyl)-5-methoxy-2-methyl-1H-indol-3-yl)-N-((trimethylsilyl)methyl)acetamide] were, in that order, 163 to 165 °C, 14.3 µM, 0.39 µM and 2.7 µM.
`COc1ccc2c(c1)c(CC(=O)NC[Si](C)(C)c1ccccc1)c(C)n2C(=O)c1ccc(Cl)cc1` [Example 3, 2-(1-(4-chlorobenzoyl)-5-methoxy-2-methyl-1H-indol-3-yl)-N-((dimethyl(phenyl)silyl)methyl)acetamide] registered a melting point of 121 to 124 °C. Also, the IC50 in series [1] was 4.8 µM. At Recombinant human COX-2, the IC50 stood at 0.31 µM. Also, the IC50 at Recombinant human COX-1 was > 10 µM.
As to `CCO[Si](CCCNC(=O)Cc1c(C)n(C(=O)c2ccc(Cl)cc2)c2ccc(OC)cc12)(OCC)OCC` [Example 4, 2-(1-(4-chlorobenzoyl)-5-methoxy-2-methyl-1H-indol-3-yl)-N-(3-(triethoxysilyl)propyl)acetamide], the melting point was 71 to 73 °C (dec.). Besides, the IC50 in series [1] was 20 µM. The IC50 on Recombinant human COX-2 worked out at 0.57 µM. Moreover, the IC50 at Recombinant human COX-1 came out at 5 µM.
As for `COc1ccc2c(c1)c(CC(=O)O)c(C)n2C(=O)c1ccc(Cl)cc1` [Indomethacin, reference compound], in series [1], the IC50 was > 100 µM.
